The assay deals with MDA-MB-231 cell line. The assay is described as follows: Cancer cell death effect, MTT assay. The class given is cell-based. The following applies: not irradiated with ultrasound; 2-10 μg/mL doxorubicin, 3 hours treatment, 72 hours culture; FIG. 9. As to the method:
To compare and analyze a cell death effect of the sonosensitive liposome according to the presence/absence of ultrasound irradiation, cancer cell death effects were compared and analyzed according to the presence/absence of ultrasound irradiation using the sonosensitive liposomes of Example 1. An MDA-MB-231 cell line which is a triple-negative breast cancer cell line was used as cancer cells. The MDA-MB-231 cell line was seeded in each well of a 96-well plate at a concentration of 10,000 cells/mL, and then cultured overnight. The cell culture was cultured in a culture broth containing 10% fetal bovine serum (FBS) and 1% antibiotic in Dulbecco's Modified Eagle Medium (DMEM). The culture broth was removed from the wells in which the cells were cultured overnight, and replaced with FBS-free DMEM, and then cultured for an hour. Then, the sonosensitive liposome were added thereto, and cultured for 3 hours. To compare and analyze the cancer cell death according to the ultrasound irradiation, each of the designated wells was treated with a sonosensitive liposome (Sono liposome (US+)) irradiated with ultrasound and a sonosensitive liposome (Sono liposome (US−)) not irradiated with ultrasound. […] The cancer cell death effects were compared and analyzed by adding 200 μL of DMSO to formed formazan in each well and measuring the absorbance at a wavelength of 540 nm using an ELISA reader.

Each structure is given as a SMILES string.

`COc1cccc2c1C(=O)c1c(O)c3c(c(O)c1C2=O)C[C@@](O)(C(=O)CO)C[C@@H]3O[C@H]1C[C@H](N)[C@H](O)[C@H](C)O1` [doxorubicin]: the “cell death effect on cancer cells” value is “had a cancer cell death effect”.

For the origin of these results see patent publication US20230263905A1, “SONOSENSITIVE LIPOSOME AND METHOD FOR PREPARING SAME” (IMGT CO, LTD., priority 2020, published 2023).
